The conditions of series [1]: physiological pH, background statement; cited from earlier work.
In series [2] the test system is Human glioma U1242/luc-GFP cells. Briefly: Cell toxicity assay (luciferase assay). Type of series: cell-based. The note with it: 48 h, carriers at concentrations up to 33 μM.
Experimental: Cell toxicity assays. Human glioma U1242/luc-GFP cells stably expressing the reporter luciferase were exposed to various CPT equivalent concentrations of polymer-CPT conjugates or polymer control samples (n=4) in a 96-well microtiter plate for 48 h followed by luciferase assay to assess survival of cells.

With `CC[C@@]1(O)C(=O)OCc2c1cc1n(c2=O)Cc2cc3ccccc3nc2-1` [CPT, 20(S)-Camptothecin], the “stability of lactone form” value in series [1] is “rapidly transforms into the carboxylate form”. In addition, the cytotoxicity entry in series [2] is given as “dose-dependent toxic”.
